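Interpolation was linear, between the two tested concentrations surrounding the appropriate level; five concentrations were tested over 48 hours in 96-well plates. GI50 marks 50% less growth. At the TGI there is no net growth.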
Columns and labels:
Test in all cases: NCI-60 cell line screen, 48 h
MOLT-4 leukemia = system: MOLT-4 leukemia
LOX IMVI melanoma = system: LOX IMVI melanoma
SF-295 CNS = system: SF-295 CNS
NCI-H226 lung = system: NCI-H226 lung
SR leukemia = system: SR leukemia
K-562 leukemia = system: K-562 leukemia
SNB-19 CNS = system: SNB-19 CNS
SF-268 CNS = system: SF-268 CNS
NCI-H23 lung = system: NCI-H23 lung
UACC-257 melanoma = system: UACC-257 melanoma
MCF7 breast = system: MCF7 breast
NCI/ADR-RES ovarian = system: NCI/ADR-RES ovarian
NCI-H522 lung = system: NCI-H522 lung
TK-10 renal = system: TK-10 renal
HT29 colon = system: HT29 colon
CCRF-CEM leukemia = system: CCRF-CEM leukemia
ACHN renal = system: ACHN renal
RPMI-8226 leukemia = system: RPMI-8226 leukemia
COLO 205 colon = system: COLO 205 colon
SK-MEL-2 melanoma = system: SK-MEL-2 melanoma
SW-620 colon = system: SW-620 colon
MALME-3M melanoma = system: MALME-3M melanoma
CAKI-1 renal = system: CAKI-1 renal
M14 melanoma = system: M14 melanoma
T-47D breast = system: T-47D breast
NCI-H460 lung = system: NCI-H460 lung
KM12 colon = system: KM12 colon
HS 578T breast = system: HS 578T breast
HOP-92 NSCLC = system: HOP-92 NSCLC

For COc1ccc2c(c1)O/C(=C\c1ccc([N+](=O)[O-])o1)C2=O, which GI50 (MOLT-4 leukemia) is on record?
The GI50 was 2130 nM.

And the TGI (MOLT-4 leukemia)?
Its TGI is 8260 nM.

And the GI50 (LOX IMVI melanoma)?
Its GI50 is 1140 nM.

What about the TGI (LOX IMVI melanoma) of the same molecule?
The TGI was 2960 nM.

What about the GI50 (SF-295 CNS) of the same molecule?
The GI50 was 2470 nM.

And the TGI (SF-295 CNS)?
Its TGI is 11600 nM.

What about the GI50 (NCI-H226 lung) of the same molecule?
The GI50 was 3440 nM.

What about the TGI (NCI-H226 lung) of the same molecule?
The TGI was 23600 nM.

What about the GI50 (SR leukemia) of the same molecule?
Its GI50 is 178 nM.

And the TGI (SR leukemia)?
The TGI was 964 nM.

What about the GI50 (K-562 leukemia) of the same molecule?
The GI50 was 352 nM.

What about the TGI (K-562 leukemia) of the same molecule?
The TGI was 1910 nM.

And the GI50 (SNB-19 CNS)?
Its GI50 is 3090 nM.

What about the TGI (SNB-19 CNS) of the same molecule?
Its TGI is > 100000 nM.

What about the GI50 (SF-268 CNS) of the same molecule?
The GI50 was 2000 nM.

And the TGI (SF-268 CNS)?
Its TGI is 16800 nM.

And the GI50 (NCI-H23 lung)?
The GI50 was 1990 nM.

And the TGI (NCI-H23 lung)?
Its TGI is 5810 nM.

And the GI50 (UACC-257 melanoma)?
The GI50 was 1720 nM.

What about the TGI (UACC-257 melanoma) of the same molecule?
The TGI was 3850 nM.

What about the GI50 (MCF7 breast) of the same molecule?
Its GI50 is 345 nM.

What about the TGI (MCF7 breast) of the same molecule?
The TGI was 3120 nM.

And the GI50 (NCI/ADR-RES ovarian)?
The GI50 was 2740 nM.

What about the TGI (NCI/ADR-RES ovarian) of the same molecule?
Its TGI is > 30100 nM.

What about the GI50 (NCI-H522 lung) of the same molecule?
Its GI50 is 1250 nM.

And the TGI (NCI-H522 lung)?
The TGI was 2570 nM.

What about the GI50 (TK-10 renal) of the same molecule?
Its GI50 is 2130 nM.

And the TGI (TK-10 renal)?
Its TGI is 9490 nM.

What about the GI50 (HT29 colon) of the same molecule?
Its GI50 is 452 nM.

And the TGI (HT29 colon)?
The TGI was 1920 nM.

What about the GI50 (CCRF-CEM leukemia) of the same molecule?
The GI50 was 340 nM.

And the TGI (CCRF-CEM leukemia)?
Its TGI is 1700 nM.

And the GI50 (ACHN renal)?
Its GI50 is 625 nM.

What about the TGI (ACHN renal) of the same molecule?
The TGI was 2690 nM.

What about the GI50 (RPMI-8226 leukemia) of the same molecule?
The GI50 was 367 nM.

And the TGI (RPMI-8226 leukemia)?
Its TGI is 2330 nM.

And the GI50 (COLO 205 colon)?
Its GI50 is 1180 nM.

What about the TGI (COLO 205 colon) of the same molecule?
Its TGI is 3120 nM.

What about the GI50 (SK-MEL-2 melanoma) of the same molecule?
Its GI50 is 2130 nM.

And the TGI (SK-MEL-2 melanoma)?
The TGI was 4010 nM.

And the GI50 (SW-620 colon)?
The GI50 was 294 nM.

What about the TGI (SW-620 colon) of the same molecule?
Its TGI is 1390 nM.

And the GI50 (MALME-3M melanoma)?
Its GI50 is 2450 nM.

What about the TGI (MALME-3M melanoma) of the same molecule?
The TGI was 5770 nM.

What about the GI50 (CAKI-1 renal) of the same molecule?
Its GI50 is 452 nM.

What about the TGI (CAKI-1 renal) of the same molecule?
The TGI was 2120 nM.

And the GI50 (M14 melanoma)?
The GI50 was 1640 nM.

And the TGI (M14 melanoma)?
Its TGI is 3740 nM.

And the GI50 (T-47D breast)?
Its GI50 is 1400 nM.

What about the TGI (T-47D breast) of the same molecule?
Its TGI is 8830 nM.

And the GI50 (NCI-H460 lung)?
The GI50 was 598 nM.

What about the TGI (NCI-H460 lung) of the same molecule?
The TGI was 3890 nM.

And the GI50 (KM12 colon)?
The GI50 was 1370 nM.

What about the TGI (KM12 colon) of the same molecule?
Its TGI is 3420 nM.

What about the GI50 (HS 578T breast) of the same molecule?
Its GI50 is 2360 nM.

And the TGI (HS 578T breast)?
The TGI was 7320 nM.

And the GI50 (HOP-92 NSCLC)?
The GI50 was 1950 nM.

Reference: PubChem BioAssay (NCI)
